Test results taken from patent US10760052B2, “Method of inhibiting tau phosphorylation” (priority 2012, dated 2020).
Read-outs that look alike come from different tables or passages of the source.

Target: T1, mu opiate receptor (MOR) (Rattus norvegicus, UniProt P33535)
T1 construct: from tissue; host or cells: striatum (membrane preparation)
Type: biochemical

[1] = [35S]GTPγS binding to Gαo in striatal membranes, compound 0.1 μM
[2] = [35S]GTPγS binding to Gαo in striatal membranes, compound 1 μM
[3] = [35S]GTPγS binding to Gαo in striatal membranes, compound 1 μM plus 1 μM β-funaltrexamine (MOR antagonist)

T1 sequence (P33535 whole entry): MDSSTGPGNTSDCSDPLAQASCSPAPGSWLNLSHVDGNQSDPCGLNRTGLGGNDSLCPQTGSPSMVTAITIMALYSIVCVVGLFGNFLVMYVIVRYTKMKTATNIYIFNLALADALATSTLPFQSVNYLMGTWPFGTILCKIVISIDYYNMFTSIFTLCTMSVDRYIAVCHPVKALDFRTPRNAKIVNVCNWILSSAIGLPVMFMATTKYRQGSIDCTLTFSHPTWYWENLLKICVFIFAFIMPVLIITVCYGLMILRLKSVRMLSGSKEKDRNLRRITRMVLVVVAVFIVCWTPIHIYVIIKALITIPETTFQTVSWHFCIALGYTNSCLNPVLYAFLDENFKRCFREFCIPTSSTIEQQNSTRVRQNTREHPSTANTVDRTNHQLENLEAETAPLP

Structure (SMILES) | % DAMGO (0.1 μM) [%] | % DAMGO (1 μM) [%] | % DAMGO + BFNA [%] | Concentration of FLNA-Binding Compound as Agonist 0.1 μM [1] [%] | Concentration of FLNA-Binding Compound as Agonist 1 μM [2] [%] | Concentration of FLNA-Binding Compound as Agonist 1 μM + BFNA [3] [%] | [35S]GTPγS binding, FLNA-Binding Compound as Agonist at 0.1 μM (0.1 μM compound, striatal membranes, Series C-2) [%] | [35S]GTPγS binding, FLNA-Binding Compound as Agonist at 1 μM + BFNA (1 μM compound + 1 μM β-FNA (selective MOR antagonist), Series C-2) [%] | [35S]GTPγS binding, FLNA-Binding Compound as Agonist at 1 μM (1 μM compound, striatal membranes, Series C-2) [%] | Concentration of FLNA-Binding Compound as Agonist 0.1 μM [%] | Concentration of FLNA-Binding Compound as Agonist 1 μM [%] | Concentration of FLNA-Binding Compound as Agonist 1 μM + BFNA [%] | [35S]GTPγS binding, FLNA-Binding Compound as Agonist at 0.1 μM [%] | [35S]GTPγS binding, FLNA-Binding Compound as Agonist at 1 μM [%] | [35S]GTPγS binding, FLNA-Binding Compound as Agonist at 1 μM + BFNA [%]
O=S(=O)(c1ccc(Oc2ccccc2)cc1)N1CCC2(CC1)OCCN2S(=O)(=O)c1ccc(Oc2ccccc2)cc1 [Compound C0149M] | 122.0 | 124.8 | 102.3 | 209.8 | 406.7 | 93.4 | – | – | – | – | – | – | – | – | –
CCCCN1CCC2(CC1)OCCN2S(=O)(=O)c1ccc(OC)cc1 [Compound C0102M] | 78.6 | 122.4 | 316.6 | – | – | – | 131.8 | 150.4 | 272.0 | – | – | – | – | – | –
COc1ccc(OC)c(CCC(=O)CC2c3c(cc4c(c3OC)OCO4)CC[N+]2(C)C)c1 (stereo not drawn) [Compound B0044] | 49.4 | 66.9 | 511.8 | 87.3 | 170.0 | 134.6 | – | – | – | – | – | – | – | – | –
O=S(=O)(c1ccccc1)N1CCC2(CC1)OCCN2S(=O)(=O)c1ccccc1 [Compound C0016] | 100.4 | 83.3 | 150.9 | 172.7 | 230.5 | 96.7 | – | – | – | – | – | – | – | – | –
CC1CCC(C(C)C)C(OCC(O)CN2CCC(=O)C(C)C2)C1 (stereo not drawn) [Compound A0056] | 74.1 | 56.2 | 43.6 | – | – | – | – | – | – | 115.6 | 129.6 | 17.4 | – | – | –
O=S(=O)(c1ccc(-c2ccccc2)cc1)N1CCC2(CC1)OCCN2S(=O)(=O)c1ccc(-c2ccccc2)cc1 [Compound C0010] | 80.7 | 114.9 | 135.0 | 136.5 | 307.0 | 89.1 | – | – | – | – | – | – | – | – | –
CC1CCC(C(C)C)C(OCC(O)CN2CCCCC2=O)C1 (stereo not drawn) [Compound A0036] | 73.4 | 60.7 | 85.5 | 144.1 | 167.5 | 63.2 | – | – | – | – | – | – | – | – | –
CC1CCC(C(C)C)C(OCC(O)CN2CCC2)C1 (stereo not drawn) [Compound A0015] | 64.8 | 56.2 | 120.0 | 110.9 | 150.1 | 62.5 | – | – | – | – | – | – | – | – | –
COc1ccc(C(=O)N2CCOC23CCN(S(=O)(=O)c2ccc(OC)cc2)CC3)cc1 [Compound C0019] | 59.1 | 68.1 | 80.4 | 104.4 | 176.6 | 52.8 | – | – | – | – | – | – | – | – | –
CC(O)c1ccc(S(=O)(=O)N2CCC3(CC2)OCCN3S(=O)(=O)c2ccc(C(C)O)cc2)cc1 (stereo not drawn) [Compound C0051] | 65.1 | 73.1 | 127.0 | 94.4 | 170.4 | 55.9 | – | – | – | – | – | – | – | – | –
CC1CCC(C(C)C)C(OCC(O)CN2CCCCCC2)C1 (stereo not drawn) [Compound A0013] | 57.8 | 63.6 | 131.1 | 102.1 | 164.8 | 86.1 | – | – | – | – | – | – | – | – | –
O=C(OCc1ccccc1)c1ccc(S(=O)(=O)N2CCC3(CC2)OCCN3S(=O)(=O)c2ccc(C(=O)OCc3ccccc3)cc2)cc1 [Compound C0042] | 98.9 | 119.2 | 666.3 | 167.1 | 260.9 | 110.6 | – | – | – | – | – | – | – | – | –
COc1cc(S(=O)(=O)N2CCC3(CC2)OCCN3S(=O)(=O)c2cc(OC)c(OC)c(OC)c2)cc(OC)c1OC [Compound C0062] | 81.9 | 134.7 | 149.9 | 127.8 | 310.5 | 59.8 | – | – | – | – | – | – | – | – | –
CC1CCC(C(C)C)C(OCC(O)CN2CCCCC2C)C1 (stereo not drawn) [Compound A0007] | 68.3 | 96.4 | 152.5 | 102.0 | 221.9 | 40.4 | – | – | – | – | – | – | – | – | –
CC1CCC(C(C)C)C(OCC(O)CN(C(C)C)C(C)C)C1 (stereo not drawn) [Compound A0037] | 90.7 | 85.6 | 141.5 | 177.9 | 236.2 | 104.6 | – | – | – | – | – | – | – | – | –
CC1CN(CC(O)COc2ccccc2Br)CC(C)O1 (stereo not drawn) [Compound A0043] | 93.4 | 81.1 | 120.6 | 183.3 | 223.8 | 89.1 | – | – | – | – | – | – | – | – | –
CS(=O)(=O)c1ccc(S(=O)(=O)N2CCOC23CCNCC3)cc1 [Compound C0116M] | 136.6 | 122.0 | 313.4 | – | – | – | – | – | – | – | – | – | 258.4 | 302.8 | 152.0
O=S(=O)(c1cccs1)N1CCC2(CC1)OCCN2S(=O)(=O)c1cccs1 [Compound C0141M] | 109.9 | 105.8 | 121.9 | 161.5 | 213.9 | 47.9 | – | – | – | – | – | – | – | – | –
COC(=O)c1ccc(S(=O)(=O)N2CCC3(CC2)OCCN3S(=O)(=O)c2ccc(C(=O)OC)cc2)cc1 [Compound C0028] | 55.6 | 60.5 | 472.3 | 93.9 | 132.4 | 78.4 | – | – | – | – | – | – | – | – | –
CC1CCC(C(C)C)C(OCC(O)CN2CCCCC2)C1 (stereo not drawn) [Compound A0005] | 105.0 | 89.6 | 45.1 | 179.7 | 239.2 | 23.5 | – | – | – | – | – | – | – | – | –
